Test results as given in US8729112B2, “Antimicrobial haloalkyl heterocycle compounds” (NovaBay Pharmaceuticals, Inc., priority 2011, dated 2014).
Converted amounts (≈) assume the structure as drawn.

How the values were obtained:
Format in all cases: cell-based
L929 cells = assay: Cytotoxicity CT50 in L929 cells
[1] = test system: Staphylococcus aureus (ATCC 29213); assay: Antimicrobial activity (MBC), S. aureus; details: saline pH 7, 1 h at room temperature, 1.0×10^5 to 1.0×10^6 CFU/mL
Method: (§1) Antimicrobial activity of certain compounds of the present disclosure was tested against Escherichia coli (ATCC 25922), Staphylococcus aureus (ATCC 29213), and Candida albicans (ATCC 10231). The microbial cultures were diluted in sterile saline pH 7 to prepare inocula. Test compounds were titrated by stepwise two-fold dilutions in sterile saline pH 7. A total of 1.0×10^5 to 1.0×10^6 Colony Forming Units (CFU)/mL microbe was added to each tube, mixed by gentle vortexing, and then incubated at room temperature for 1 h. Microbial plating on Petri dishes (Tryptic Soy agar or Saboraud's Dextrose agar) was performed immediately after the designated exposure after neutralization of the test article dilutions in Dey-Engley Broth. Plates were incubated at 37° C., and the numbers of microbes were counted by direct colony count to quantitate the surviving microbes as CFU/mL. Positive growth controls were made with sterile 0.9% saline. Compounds were dissolved phosphate buffered saline (PBS) at pH 7 (using HCl and/or NaOH as needed). All compounds were tested three times.

[2] = test system: Escherichia coli (ATCC 25922); assay: Antimicrobial activity (MBC), E. coli; details: saline pH 7, 1 h at room temperature, 1.0×10^5 to 1.0×10^6 CFU/mL
Method: as §1

[3] = test system: Candida albicans (ATCC 10231); assay: Antimicrobial activity (MFC), C. albicans; details: saline pH 7, 1 h at room temperature, 1.0×10^5 to 1.0×10^6 CFU/mL
Method: as §1

CC1(CCl)CCC(=O)N1Cl (stereo not shown) [Compound 36-03, 1-chloro-5-(chloromethyl)-5-methylpyrrolidin-2-one]
CT50 L929 cells (L929 cells): 0.026 mM
MBC/MFC S. aureus [1]: 128 mg/L (≈ 703 µM)
MBC/MFC E. coli [2]: 2 mg/L (≈ 11 µM)
MBC/MFC C. albicans [3]: >512 mg/L

CC1(CF)COC(=O)N1Cl (stereo not shown) [Compound 36-07, 3-chloro-4-(fluoromethyl)-4-methyl-oxazolidin-2-one]
CT50 L929 cells (L929 cells): 0.142 mM
MBC/MFC S. aureus [1]: 0.5 mg/L (≈ 2.98 µM)
MBC/MFC E. coli [2]: 0.5 mg/L (≈ 2.98 µM)
MBC/MFC C. albicans [3]: 256 mg/L (≈ 1530 µM)

O=C1OCC(CCl)(CCl)N1Cl [Compound 36-06, 3-chloro-4,4-bis(chloromethyl)oxazolidin-2-one]
CT50 L929 cells (L929 cells): 0.4 mM
MBC/MFC S. aureus [1]: 0.5 mg/L (≈ 2.29 µM)
MBC/MFC E. coli [2]: 1 mg/L (≈ 4.58 µM)
MBC/MFC C. albicans [3]: 16 mg/L (≈ 73.2 µM)

CN1CC(C)(CCl)N(Cl)C1=O (stereo not shown) [Compound 36-02, 3-Chloro-4-(chloromethyl)-1,4-dimethylimidazolidin-2-one]
CT50 L929 cells (L929 cells): 0.04 mM
MBC/MFC S. aureus [1]: 16 mg/L (≈ 81.2 µM)
MBC/MFC E. coli [2]: 8 mg/L (≈ 40.6 µM)
MBC/MFC C. albicans [3]: 512 mg/L (≈ 2600 µM)

CC1(CCl)COC(=O)N1Cl (stereo not shown) [Compound 36-01, 3-Chloro-4-(chloromethyl)-4-methyloxazolidin-2-one]
CT50 L929 cells (L929 cells): 0.09 mM
MBC/MFC S. aureus [1]: 0.5 mg/L (≈ 2.72 µM)
MBC/MFC E. coli [2]: 0.5 mg/L (≈ 2.72 µM)
MBC/MFC C. albicans [3]: >128 mg/L

CC1(CC(F)(F)F)COC(=O)N1Cl (stereo not shown) [Compound 36-08, 3-chloro-4-(2,2,2-trifluoroethyl)-4-methyl-oxazolidin-2-one]
CT50 L929 cells (L929 cells): 0.232 mM
MBC/MFC S. aureus [1]: 1 mg/L (≈ 4.6 µM)
MBC/MFC E. coli [2]: 4 mg/L (≈ 18.4 µM)
MBC/MFC C. albicans [3]: 128 mg/L (≈ 588 µM)

CC1(CBr)COC(=O)N1Cl (stereo not shown) [Compound 36-05, 4-(bromomethyl)-3-chloro-4-methyloxazolidin-2-one]
CT50 L929 cells (L929 cells): 0.1 mM
MBC/MFC S. aureus [1]: 0.5 mg/L (≈ 2.19 µM)
MBC/MFC E. coli [2]: 1 mg/L (≈ 4.38 µM)
MBC/MFC C. albicans [3]: 64 mg/L (≈ 280 µM)
